Experimental data reported in patent US20250163122A1, “COMPOSITIONS AND METHODS FOR TREATING AIRWAY MUCUS DYSFUNCTION” (BOARD OF REGENTS, THE UNIVERSITY OF TEXAS SYSTEM, priority 2022, published 2025).
Where a SMILES comes first, the peptide text is derived from it. Bridges are numbered along the chain shown (N, C = ends). [ ]: non-standard residue; d: D form. S5 = C=CCCC[C@](C)(N)C(=O)O

Legend:
[1] = biological target: T1, neuronal SNAREs and Syt1_QM (Rattus norvegicus, UniProt P21707, E295A/R281A/R398A/R399A/Y338W); experiment: Single vesicle content mixing assay, neuronal SNAREs and Syt1_QM; type: biochemical; details: 10 μM peptide, raw count; for Ca2+ triggered fusion events: 500 μM Ca2+
T1 construct: made in house
Description: (§1) For single vesicle content mixing assay, the lipid composition of the SV, SG, VAMP2, or VAMP8 vesicles was phosphatidylcholine (PC) (48%), phosphatidylethanolamine (PE) (20%), phosphatidylserine (PS) (12%), and cholesterol (20%); for both the neuronal and airway PM vesicles the lipid composition was Brain Total Lipid Extract supplemented 3.5 mol % PIP2, and 0.1 mol % biotinylated phosphatidylethanolamine (PE).
(§2) The reconstitution method for neuronal PM and SV vesicles was described in detail previously (see Lai et al., 2017; Kyoung et al., 2011; and Lai et al., 2014). The same methods were used for airway PM, SG, VAMP2, and VAMP8 vesicles. Dried lipid films were dissolved in 110 mM OG buffer containing purified proteins at protein-to-lipid ratios of 1:200 for VAMP2 and Stx1A for SV and neuronal PM vesicles, respectively (or 1:200 for VAMP8 and Stx3 for SG and airway PM vesicles, respectively), and 1:800 for Syt1 for SV vesicles (or 1:1200 for Syt2 for SG vesicles).
(§3) A 3-5 fold excess of SNAP-25A or SNAP-23 (with respect to Stx1A or Stx3) and 3.5 mol % PIP2 were added to the protein-lipid mixture for neuronal or airway PM vesicles. […] For the preparation of SV, SG, VAMP2, or VAMP8 vesicles for single vesicle content mixing assay, 50 mM sulforhodamine B (Thermo Fisher Scientific) was added to the protein-lipid mixture. The vesicles subsequently formed during size exclusion chromatography using a Sepharose CL-4B column, packed under near constant pressure by gravity with a peristaltic pump (GE Healthcare) in a 5.5 ml column with a ˜5 ml bed volume that was equilibrated with buffer V (20 mM HEPES, pH 7.4, 90 mM NaCl) supplemented with 20 μM EGTA and 0.1% 2-mercaptoethanol. The eluent was subjected to dialysis into 21 of detergent-free buffer V supplemented with 20 μM EGTA, 0.1% 2-mercaptoethanol, 5 g of Bio-beads SM2 (Bio-Rad) and 0.8 g/L Chelex 100 resin (Bio-Rad). After 4 hours, the buffer was exchanged with 21 of fresh buffer V supplemented with 20 μM EGTA, 0.1% 2-mercaptoethanol and Bio-beads, and the dialysis continued for another 12 h (overnight). […] For ensemble lipid mixing assay, the reconstitution method is the same as that for the single vesicle content mixing assay, except that 50 mM sulforhodamine B was omitted for all the steps.
(§4) Single vesicle content mixing experiments. All single vesicle fusion and single molecule experiments were performed on a prism-type total internal reflection fluorescence (TIRF) microscope using 532 nm (green) laser (CrystaLaser) excitation. Two observation channels were created by a 640 nm single-edge dichroic beamsplitter (FF640-FDi01-25x36, Shemrock): one channel was used for the fluorescence emission intensity of the content dyes and the other channel for that of the Cy5 dye that are part of the injected Ca^2+-solution. The two channels were recorded on two adjacent rectangular areas (45×90 m^2) of a charge-coupled device (CCD) camera (iXon+DV 897E, Andor Technology). The imaging data were recorded with the smCamera software developed by Taekjip Ha, Johns Hopkins University, Baltimore.
(§5) Flow chambers were assembled by creating a “sandwich” consisting of a quartz slide and a glass coverslip that were both coated with polyethylene glycol (PEG) molecules consisting 0.1% (w/v) biotinylated-PEG except when stated otherwise, and using double-sided tape to create up to five flow-chambers.
(§6) The single vesicle content mixing assay described in Lai et al. (2014) was used to monitor vesicle-vesicle association, Ca^2+-independent, and Ca^2+-triggered fusion. The surface of the quartz slides was passivated by coating the surface with polyethylene glycol (PEG) molecules which alleviated non-specific binding of vesicles. The same protocol and quality controls (surface coverage and non-specific binding) were used as described previously (Kyoung et al., 2011; Kyoung et al., 2012) except that PEG-SVA (Laysan Bio) instead of mPEG-SCM (Laysan Bio) was used since it has a longer half-life. […]

neuronal SNAREs and Syt1 = experiment: Single vesicle content mixing assay, neuronal SNAREs and Syt1; type: biochemical; details: 10 μM peptide, raw count; for Ca2+ triggered fusion events: 500 μM Ca2+
Description: as §1, §2, §3, §4, §5, §6

T1 sequence (P21707 whole entry R281A/E295A/Y338W/R398A/R399A, the tested form may be a part): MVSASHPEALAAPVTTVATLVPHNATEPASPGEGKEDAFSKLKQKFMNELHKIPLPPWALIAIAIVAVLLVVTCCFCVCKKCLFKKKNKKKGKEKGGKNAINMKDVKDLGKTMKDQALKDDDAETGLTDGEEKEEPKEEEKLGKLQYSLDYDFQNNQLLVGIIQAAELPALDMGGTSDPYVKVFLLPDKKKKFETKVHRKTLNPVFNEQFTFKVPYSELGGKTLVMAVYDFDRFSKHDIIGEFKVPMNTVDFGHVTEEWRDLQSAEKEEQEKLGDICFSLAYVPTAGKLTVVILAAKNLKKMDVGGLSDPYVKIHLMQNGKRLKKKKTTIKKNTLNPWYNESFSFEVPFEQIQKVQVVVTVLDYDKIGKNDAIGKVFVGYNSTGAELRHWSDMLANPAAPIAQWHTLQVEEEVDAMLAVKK

`CC[C@H](C)[C@H](NC(=O)[C@]1(C)CCCC=CCCC[C@](C)(NC(=O)[C@H](CCC(=O)O)NC(=O)[C@H](CCC(=O)O)NC(C)=O)C(=O)N[C@@H](CCCCN)C(=O)N[C@@H](CC(=O)O)C(=O)N[C@@H](C)C(=O)N1)C(=O)N[C@@H](CCCNC(=N)N)C(=O)N[C@@]1(C)CCCC=CCCC[C@@](C)(C(=O)N[C@@H](CC(=O)O)C(=O)N[C@@H](CCC(=O)O)C(=O)N[C@@H](CCC(N)=O)C(=O)N[C@@H](CS)C(N)=O)NC(=O)[C@H](CCSC)NC(=O)[C@H](C(C)C)NC(=O)[C@H](CC(C)C)NC1=O` [SP9, Ac-EE(S5)KDA(S5)IR(S5)LVM(S5)DEQC-amide] (Ac-EE[S5]KDA[S5]IR[S5]LVM[S5]DEQC-NH2; staple 3-7, 10-14) was tested, and the “Ca2+ triggered fusion events” value [1] was 260, the “Ca2+ independent fusion events” value [1] was 242 and the “Ca2+ triggered fusion events” value (neuronal SNAREs and Syt1) was 272. The “Ca2+ independent fusion events” value (neuronal SNAREs and Syt1) was 165.

“Ac-SKD(S5)GIR(S5)LV(S5)LDE(S5)GEQL-amide (Ac-SKD[S5]GIR[S5]LV[S5]LDE[S5]GEQL-NH2; staple 11-15, 4-8; SMILES CC[C@H](C)[C@@H]1NC(=O)CNC(=O)[C@@](C)(NC(=O)[C@H](CC(=O)O)NC(=O)[C@H](CCCCN)NC(=O)[C@H](CO)NC(C)=O)CCCC=CCCC[C@@](C)(C(=O)N[C@@H](CC(C)C)C(=O)N[C@H](C(=O)N[C@@]2(C)CCCC=CCCC[C@@](C)(C(=O)NCC(=O)N[C@@H](CCC(=O)O)C(=O)N[C@@H](CCC(N)=O)C(=O)N[C@@H](CC(C)C)C(N)=O)NC(=O)[C@H](CCC(=O)O)NC(=O)[C@H](CC(=O)O)NC(=O)[C@H](CC(C)C)NC2=O)C(C)C)NC(=O)[C@H](CCCNC(=N)N)NC1=O) [SP10]” was tested, and the “Ca2+ triggered fusion events” value [1] was 367, the “Ca2+ independent fusion events” value [1] was 252 and the “Ca2+ triggered fusion events” value (neuronal SNAREs and Syt1) was 495. For the same compound, the “Ca2+ independent fusion events” value (neuronal SNAREs and Syt1) was 263.

For “Ac-SKD(S5)GIR(S5)LVMLDE(S5)GEQ(S5)DR-amide (Ac-SKD[S5]GIR[S5]LVMLDE[S5]GEQ[S5]DR-NH2; staple 15-19, 4-8; SMILES CC[C@H](C)[C@@H]1NC(=O)CNC(=O)[C@@](C)(NC(=O)[C@H](CC(=O)O)NC(=O)[C@H](CCCCN)NC(=O)[C@H](CO)NC(C)=O)CCCC=CCCC[C@@](C)(C(=O)N[C@@H](CC(C)C)C(=O)N[C@H](C(=O)N[C@@H](CCSC)C(=O)N[C@@H](CC(C)C)C(=O)N[C@@H](CC(=O)O)C(=O)N[C@@H](CCC(=O)O)C(=O)N[C@@]2(C)CCCC=CCCC[C@@](C)(C(=O)N[C@@H](CC(=O)O)C(=O)N[C@@H](CCCNC(=N)N)C(N)=O)NC(=O)[C@H](CCC(N)=O)NC(=O)[C@H](CCC(=O)O)NC(=O)CNC2=O)C(C)C)NC(=O)[C@H](CCCNC(=N)N)NC1=O) [SP1]”, the “Ca2+ triggered fusion events” value [1] was 282, the “Ca2+ independent fusion events” value [1] was 226 and the “Ca2+ triggered fusion events” value (neuronal SNAREs and Syt1) was 210. The “Ca2+ independent fusion events” value (neuronal SNAREs and Syt1) was 235.

For “Ac-SKDA(S5)IRT(S5)VM(S5)DEQ(S5)EQL-amide (Ac-SKDA[S5]IRT[S5]VM[S5]DEQ[S5]EQL-NH2; staple 12-16, 5-9; SMILES CC[C@H](C)[C@@H]1NC(=O)[C@@](C)(NC(=O)[C@H](C)NC(=O)[C@H](CC(=O)O)NC(=O)[C@H](CCCCN)NC(=O)[C@H](CO)NC(C)=O)CCCC=CCCC[C@@](C)(C(=O)N[C@H](C(=O)N[C@@H](CCSC)C(=O)N[C@@]2(C)CCCC=CCCC[C@@](C)(C(=O)N[C@@H](CCC(=O)O)C(=O)N[C@@H](CCC(N)=O)C(=O)N[C@@H](CC(C)C)C(N)=O)NC(=O)[C@H](CCC(N)=O)NC(=O)[C@H](CCC(=O)O)NC(=O)[C@H](CC(=O)O)NC2=O)C(C)C)NC(=O)[C@H]([C@@H](C)O)NC(=O)[C@H](CCCNC(=N)N)NC1=O) [SP4]”, the “Ca2+ triggered fusion events” value [1] was 248, the “Ca2+ independent fusion events” value [1] was 222 and the “Ca2+ triggered fusion events” value (neuronal SNAREs and Syt1) was 210. For the same compound, the “Ca2+ independent fusion events” value (neuronal SNAREs and Syt1) was 261.

In the case of “EESKDAGIRTLVMLDEQGEQLD [Peptide P0, non-stapled SNAP-25A fragment used as a control, reference compound]”, the “Ca2+ triggered fusion events” value (neuronal SNAREs and Syt1) is reported as 591 and the “Ca2+ independent fusion events” value (neuronal SNAREs and Syt1) is reported as 493.
